Data taken from US6534491B2, “Preparation and use of ortho-sulfonamido bicyclic heteroaryl hydroxamic acids as matrix metalloproteinase and tace inhibitors” (priority 1996, dated 2003).
Where a name gives a salt, the structure may show the parent alone. Read-outs that look alike come from different tables or passages of the source.

Tests used:
TACE = TACE (Homo sapiens, UniProt P78536); test: TACE inhibition (fluorescent peptidyl substrate); type: biochemical; settings: for inhibition at 1 µM: read-out: TACE % inhibition
Chain of TACE (P78536 215-824): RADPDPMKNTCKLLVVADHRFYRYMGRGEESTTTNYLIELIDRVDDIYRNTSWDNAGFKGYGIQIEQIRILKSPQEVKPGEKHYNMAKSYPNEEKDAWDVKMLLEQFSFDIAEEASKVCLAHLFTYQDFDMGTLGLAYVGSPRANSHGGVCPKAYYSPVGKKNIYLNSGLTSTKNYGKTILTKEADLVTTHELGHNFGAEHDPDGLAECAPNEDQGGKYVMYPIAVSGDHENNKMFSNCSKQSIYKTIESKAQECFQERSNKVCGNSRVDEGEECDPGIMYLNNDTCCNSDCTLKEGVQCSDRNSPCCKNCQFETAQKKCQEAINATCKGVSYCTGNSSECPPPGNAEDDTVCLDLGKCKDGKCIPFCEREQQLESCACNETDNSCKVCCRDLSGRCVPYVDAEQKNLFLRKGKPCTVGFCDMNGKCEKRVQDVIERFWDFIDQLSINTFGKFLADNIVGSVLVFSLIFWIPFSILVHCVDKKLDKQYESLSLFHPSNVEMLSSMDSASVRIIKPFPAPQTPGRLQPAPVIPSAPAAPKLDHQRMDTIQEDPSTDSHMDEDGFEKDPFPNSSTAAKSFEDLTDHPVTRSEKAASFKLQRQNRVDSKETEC
Experimental: Using 96-well black microtiter plates, each well receives a solution composed of 10 μL TACE (final concentration 1 μg/mL), 70 μL Tris buffer, pH 7.4 containing 10% glycerol (final concentration 10 mM), and 10 μL of test compound solution in DMSO (final concentration 1 μl M, DMSO concentration <1%) and incubated for 10 minutes at room temperature.
The reaction is read (excitation 340 nm, emission 420 nm) for 10 min. and the increase in fluorescence over time is plotted as a linear line. The slope of the line is calculated and represents the reaction rate.
The linearity of the reaction rate is confirmed (r^2>0.85). The mean (x±sem) of the control rate is calculated and compared for statistical significance (p<0.05) with drug-treated rates using Dunnett's multiple comparison test.

MMP-9 = MMP-9 (Homo sapiens, UniProt P14780); test: MMP-9 inhibition (thiopeptide or fluorescent peptide substrate); type: biochemical; settings: for inhibition at 1 µM: read-out: MMP-9 % inhibition, at 1 μM concentration
Chain of MMP-9 (P14780 94-707): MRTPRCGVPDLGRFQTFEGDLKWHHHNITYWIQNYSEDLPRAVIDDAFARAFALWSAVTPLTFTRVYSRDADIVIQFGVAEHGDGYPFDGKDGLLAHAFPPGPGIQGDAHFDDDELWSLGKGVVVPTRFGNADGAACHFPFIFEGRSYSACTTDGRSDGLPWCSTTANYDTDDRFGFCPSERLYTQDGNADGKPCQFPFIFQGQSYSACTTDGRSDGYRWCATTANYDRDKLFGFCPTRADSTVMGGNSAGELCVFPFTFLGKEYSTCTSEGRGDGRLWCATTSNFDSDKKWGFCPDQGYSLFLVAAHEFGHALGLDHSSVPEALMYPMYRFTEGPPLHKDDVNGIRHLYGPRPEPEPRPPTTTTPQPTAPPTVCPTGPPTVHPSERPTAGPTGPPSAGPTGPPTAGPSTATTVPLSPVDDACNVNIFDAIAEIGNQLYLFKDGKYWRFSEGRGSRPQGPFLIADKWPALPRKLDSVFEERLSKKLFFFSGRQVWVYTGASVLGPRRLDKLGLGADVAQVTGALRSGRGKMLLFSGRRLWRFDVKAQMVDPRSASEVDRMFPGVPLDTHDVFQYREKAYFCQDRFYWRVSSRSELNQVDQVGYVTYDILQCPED
Experimental: (§1) The enzyme activity is measured by the rate of the color increase. The thiopeptide substrate is made up fresh as a 20 mM stock in 100% DMSO and the DTNB is dissolved in 100% DMSO as a 100 mM stock and stored in the dark at room temperature. Both the substrate and DTNB are diluted together to 1 mM with substrate buffer (50 mM HEPES pH 7.5, 5 mM CaCl2) before use. The stock of enzyme is diluted with buffer (50 mM HEPES, pH 7.5, 5 mM CaCl2, 0.02% Brij) to the desired final concentration.
(§2) Alternatively, a fluorescent peptide substrate is used. In this test procedure, the peptide substrate contains a fluorescent group and a quenching group. Upon cleavage of the substrate by an MMP, the fluorescence that is generated is quantitated on the fluorescence plate reader. The assay is run in HCBC assay buffer (50 mM HEPES, pH 7.0, 5 mM Ca^+2, 0.02% Brij, 0.5% Cysteine), with human recombinant MMP-1, MMP-9, or MMP-13. The substrate is dissolved in methanol and stored frozen in 1 mM aliquots. For the assay, substrate and enzymes are diluted in HCBC buffer to the desired concentrations. Compounds are added to the 96 well plate containing enzyme and the reaction is started by the addition of substrate.
(§3) For either the thiopeptide or fluorescent peptide test procedures, the slope of the line is calculated and represents the reaction rate. The linearity of the reaction rate is confirmed (r^2>0.85). The mean (x±sem) of the control rate is calculated and compared for statistical significance (p<0.05) with drug-treated rates using Dunnett's multiple comparison test.

MMP-13 = MMP-13 (Homo sapiens, UniProt P45452); test: MMP-13 inhibition (thiopeptide or fluorescent peptide substrate); type: biochemical; settings: for inhibition at 1 µM: read-out: MMP-13 % inhibition, at 1 μM concentration
Experimental: as §1, §2, §3

MMP-1 = target: T1, MMP-1 (Homo sapiens, UniProt P03956); test: biochemical; settings: for IC50: MMP-1 IC50; for inhibition at 1 µM: read-out: MMP-1 % inhibition
T1 sequence (P03956 100-469): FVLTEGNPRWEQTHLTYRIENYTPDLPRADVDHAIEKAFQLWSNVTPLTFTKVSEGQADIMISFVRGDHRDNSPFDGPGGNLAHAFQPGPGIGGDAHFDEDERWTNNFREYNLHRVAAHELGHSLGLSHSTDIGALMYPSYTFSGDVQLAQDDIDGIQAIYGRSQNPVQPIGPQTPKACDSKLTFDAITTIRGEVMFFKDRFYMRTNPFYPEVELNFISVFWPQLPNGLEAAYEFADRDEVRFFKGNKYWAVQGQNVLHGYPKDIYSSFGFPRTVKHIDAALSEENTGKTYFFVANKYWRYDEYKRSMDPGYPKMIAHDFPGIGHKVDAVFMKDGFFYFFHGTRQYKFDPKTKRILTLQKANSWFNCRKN

| SMILES | IC50 (TACE) | IC50 (MMP-13) | IC50 (MMP-9; read-out: MMP-9 IC50) | IC50 (MMP-1) | other results |
| --- | --- | --- | --- | --- | --- |
| Cc1nn(C)c2ncc(C(=O)NO)c(N(C)S(=O)(=O)c3ccc(Oc4ccncc4)cc3)c12 [91(HC1), 4-{Methyl-[4-(4-pyridinyloxy)benzenesulfonyl]amino}-1,3-dimethyl-1H-pyrazolo[3,4-b]pyridine-5-carboxylic Acid, Hydroxyamide] | – | – | – | – | inhibition at 1 µM (TACE): 38.7%; IC50 (MMP-9; MMP-9 IC50): 0.0018 µM |
| COc1ccc(S(=O)(=O)N(Cc2ccccc2)c2c(C(=O)NO)cnc3cc(C(F)(F)F)ccc23)cc1 [Example 11, 4-[Benzyl-(4-methoxy-benzenesulfonyl)-amino]-7-trifluoromethyl-quinoline-3-carboxylic acid hydroxyamide] | > 1 µM | 0.007 µM | 0.011 µM | – | – |
| COc1ccc(S(=O)(=O)N(Cc2ccccc2)c2c(C(=O)NO)cnc3c(C(F)(F)F)cccc23)cc1 [Example 12, 4-[Benzyl-(4-methoxy-benzenesulfonyl)-amino]-8-trifluoromethyl-quinoline-3-carboxylic acid hydroxyamide] | 0.19 µM | 0.001 µM | 0.002 µM | 0.933 µM | – |
| COc1ccc(S(=O)(=O)N(Cc2ccccc2)c2c(C(=O)NO)cnc3ccc(Br)cc23)cc1 [Example 13, 4-[Benzyl-(4-methoxy-benzenesulfonyl)-amino]-6-bromo-quinoline-3-carboxylic acid hydroxyamide] | – | 0.009 µM | 0.015 µM | 0.082 µM | inhibition at 1 µM (TACE; at 1 μM concentration): 3% |
| COc1ccc(S(=O)(=O)N(Cc2ccccc2)c2c(C(=O)NO)cnc3cc(Br)ccc23)cc1 [Example 14, 4-[Benzyl-(4-methoxy-benzenesulfonyl)-amino]-7-bromo-quinoline-3-carboxylic acid hydroxyamide] | – | 0.006 µM | 0.008 µM | – | inhibition at 1 µM (TACE; at 1 μM concentration): 24% |
| COc1ccc(S(=O)(=O)N(Cc2ccccc2)c2c(C(=O)NO)cnc3ccc(C(F)(F)F)cc23)cc1 [Example 15, 4-[Benzyl-(4-methoxy-benzenesulfonyl)-amino]-6-trifluoromethyl-quinoline-3-carboxylic acid hydroxyamide] | – | 0.012 µM | 0.025 µM | – | inhibition at 1 µM (TACE; at 1 μM concentration): 7% |
| COc1ccc(S(=O)(=O)N(Cc2ccccc2)c2c(C(=O)NO)cnc3c(C)cccc23)cc1 [Example 18, 4-[Benzyl-(4-methoxybenzenesulfonyl)-amino]-8-methyl-quinoline-3-carboxylic acid hydroxyamide] | 0.627 µM | 0.026 µM | – | – | – |
| CCc1cccc2c(N(Cc3ccccc3)S(=O)(=O)c3ccc(OC)cc3)c(C(=O)NO)cnc12 [Example 19, 4-[Benzyl-(4-methoxybenzenesulfonyl)-amino]-8-ethyl-quinoline-3-carboxylic acid hydroxyamide] | 0.314 µM | 0.004 µM | 0.002 µM | – | – |
| COc1ccc(S(=O)(=O)N(Cc2ccccc2)c2c(C(=O)NO)cnc3c(C(C)C)cccc23)cc1 [Example 20, 4-[Benzyl-(4-methoxybenzenesulfonyl)-amino]-8-(1-methylethyl)-quinoline-3-carboxylic acid hydroxyamide] | 0.589 µM | 0.009 µM | 0.006 µM | 0.344 µM | – |
| C=Cc1cccc2c(N(CC)S(=O)(=O)c3ccc(OC)cc3)c(C(=O)NO)cnc12 [Example 29, 4-[Ethyl-(4-methoxy-benzenesulfonyl)-amino]-8-vinyl-quinoline-3-carboxylic acid hydroxyamide] | – | 0.004 µM | 0.005 µM | 0.2 µM | – |
| COc1ccc(S(=O)(=O)N(Cc2ccccc2)c2c(C(=O)NO)cnc3ccc([N+](=O)[O-])cc23)cc1 [Example 30, 4-[Benzyl-(4-methoxy-benzenesulfonyl)-amino]-6-nitro-quinoline-3-carboxylic acid hydroxyamide] | 0.047 µM | 0.467 µM | 0.011 µM | 0.022 µM | – |
| COc1ccc(S(=O)(=O)N(C)c2c(C(=O)NO)cnc3c(Br)cccc23)cc1 [Example 31, 4-[Methyl-(4-methoxy-benzenesulfonyl)-amino]-8-bromo-quinoline-3-carboxylic acid hydroxyamide] | 0.08 µM | 0.002 µM | – | 0.225 µM | – |
| CN(c1c(C(=O)NO)cnc2ccc(I)cc12)S(=O)(=O)c1ccc(Oc2ccncc2)cc1 [Example 32, 4-{Methyl-[4-(pyridin-4-yloxy)-benzenesulfonyl]-amino}-6-iodo-quinoline-3-carboxylic acid hydroxyamide] | 0.024 µM | 0.001 µM | 0.001 µM | 0.456 µM | – |
| CCN(c1c(C(=O)NO)cnc2ccc(C#Cc3ccccc3)cc12)S(=O)(=O)c1ccc(OC)cc1 [Example 34, 4-[Ethyl-(4-methoxy-benzenesulfonyl)-amino]-6-phenylethynyl-quinoline-3-carboxylic acid hydroxyamide] | 0.02 µM | 0.012 µM | 0.009 µM | 0.301 µM | – |
| COc1ccc(S(=O)(=O)N(Cc2cccnc2)c2c(C(=O)NO)cnc3c(Br)cccc23)cc1 [Example 37, 4-[(4-Methoxy-benzenesulfonyl)-pyridin-3-ylmethyl-amino]-8-bromo-quinoline-3-carboxylic acid hydroxyamide] | 0.124 µM | 0.001 µM | 0.002 µM | 0.065 µM | – |
| COc1ccc(S(=O)(=O)N(Cc2cccnc2)c2c(C(=O)NO)cnc3c(Cc4ccccc4)cccc23)cc1 [Example 38, 4-[(4-methoxy-benzenesulfonyl)-pyridin-3-ylmethylamino]-8-Benzyl-quinoline-3-carboxylic acid hydroxyamide] | 0.336 µM | 0.003 µM | 0.004 µM | 0.1 µM | – |
| COc1ccc(S(=O)(=O)N(Cc2cccnc2)c2c(C(=O)NO)cnc3c(I)cccc23)cc1 [Example 39, 4-[(4-Methoxy-benzenesulfonyl)-pyridin-3-ylmethyl-amino]-8-iodo-quinoline-3-carboxylic acid hydroxyamide] | 0.053 µM | 0.002 µM | 0.002 µM | – | – |
| COc1ccc(S(=O)(=O)N(Cc2cccnc2)c2c(C(=O)NO)cnc3c(-c4ccccc4)cccc23)cc1 [Example 40, 4-[(4-Methoxy-benzenesulfonyl)-pyridin-3-ylmethyl-amino]-8-phenyl-quinoline-3-carboxylic acid hydroxyamide] | 0.12 µM | 0.004 µM | 0.003 µM | 0.151 µM | – |
| O=C(NO)c1cnc2cc(C(F)(F)F)ccc2c1N(Cc1cccnc1)S(=O)(=O)c1ccc(-c2ccccc2)cc1 [Example 42, 4-[(Biphenyl-4-sulfonyl)-pyridin-3-ylmethyl-amino]-7-trifluoromethyl-quinoline-3-carboxylic acid hydroxyamide] | – | – | 0.874 µM | 5.2 µM | – |
| CCCCCCCCS(=O)(=O)N(Cc1cccnc1)c1c(C(=O)NO)cnc2cc(C(F)(F)F)ccc12 [Example 43, 4-[(Octane-1-sulfonyl)-pyridin-3-ylmethyl-amino]-7-trifluoromethyl-quinoline-3-carboxylic acid hydroxyamide] | – | – | – | – | inhibition at 1 µM (TACE; at 1 μM concentration): 20%; inhibition at 1 µM (MMP-13): 63%; inhibition at 1 µM (MMP-9): 71%; inhibition at 1 µM (MMP-1): 43% |
| Cc1ccc(S(=O)(=O)N(Cc2cccnc2)c2c(C(=O)NO)cnc3cc(C(F)(F)F)ccc23)cc1 [Example 44, 4-[Pyridin-3-ylmethyl-(toluene-4-sulfonyl)-amino]-7-trifluoromethyl-quinoline-3-carboxylic acid hydroxyamide] | – | – | – | – | inhibition at 1 µM (TACE; at 1 μM concentration): 5%; inhibition at 1 µM (MMP-13): 73%; inhibition at 1 µM (MMP-9): 59%; inhibition at 1 µM (MMP-1): 65% |
| COc1ccc(S(=O)(=O)N(Cc2cccnc2)c2c(C(=O)NO)cnc3c2cnn3-c2ccccc2)cc1 [Example 63, 4-[(4-Methoxybenzenesulfonyl)pyridin-3-ylmethylamino]-1-phenyl-1H-pyrazolo[3,4-b]pyridine-5-carboxylic acid, hydroxyamide] | – | 0.023 µM | 0.0068 µM | 0.721 µM | – |
| COc1ccc(S(=O)(=O)N(Cc2cccnc2)c2c(C(=O)NO)cnc3c2cnn3-c2ccccc2)cc1 [Example 64, 4-[(4-Methoxybenzenesulfonyl)pyridin-3-ylmethylamino]-1-phenyl-1H-pyrazolo[3,4-b]pyridine-5-carboxylic acid, hydroxyamide, hydrochloride] | – | 0.019 µM | 0.0055 µM | 0.913 µM | – |
| COc1ccc(S(=O)(=O)N(Cc2cccnc2)c2c(C(=O)NO)cnc3c2c(C)nn3-c2ccccc2)cc1 [Example 67, 4-[(4-Methoxybenzenesulfonyl)pyridin-3-ylmethylamino]-1phenyl-3-methyl-1H-pyrazolo[3,4-b]pyridine-5-carboxylic acid, hydroxyamide] | – | – | – | 0.096 µM | – |
| COc1ccc(S(=O)(=O)N(Cc2cccnc2)c2c(C(=O)NO)cnc3snc(C)c23)cc1 [Example 86, 4-[(4-Methoxybenzenesulfonyl)pyridin-3-ylmethylamino]-3-methylisothiazolo[5,4-b]pyridine-5-carboxylic Acid, Hydroxyamide] | – | – | 0.0069 µM | 0.131 µM | – |
